# Measured values as given in ChEMBL document CHEMBL4808194, “Design, synthesis and biological evaluation of novel 2,4-disubstituted quinazoline derivatives targeting H1975 cells via EGFR-PI3K signaling pathway” (Bioorg Med Chem, 2021).
# The source made the active and inactive calls. The calls are words filed in the database; no cut-off is given here.
# Assays:
# NCI-H1975 [1] = test: Cell cycle arrest in human NCI-H1975 cells assessed as accumulation at G1 phase at 2 uM incubated for 24 hrs by propidium iodide staining based flow cytometric analysis (reference value: 50.56 %); type: functional
# NCI-H1975 [2] = test: Induction of apoptosis in human NCI-H1975 cells assessed as shrunken and broken nuclear morphology at 2 to 8 uM incubated for 48 hrs by DAPI staining based fluorescence microscopic analysis; type: functional, cell-based; conditions: dose 2-8 µM
# NCI-H1975 [3] = test: Induction of apoptosis in human NCI-H1975 cells assessed as viable cells at 2 uM incubated for 48 hrs Annexin V-FITC/PI staining based flow cytometric analysis (reference value: 90.9%); type: functional; conditions: read-out: Activity
# NCI-H1975 [4] = test: Inhibition of cell migration in human NCI-H1975 cells incubated for 72 hrs by scratch wound healing assay; type: functional, cell-based; conditions: dose 0.5-2 µM
# NCI-H1975 [5] = test: Inhibition of colony formation in human NCI-H1975 cells assessed as fewer and smaller cell colonies incubated for 7 days by crystal violet staining based microscopic analysis; type: functional; conditions: dose 0.5-2 µM, time 7.0 day
# MDA-MB-231 = test: cells; type: functional, cell-based; conditions: Homo sapiens, MDA-MB-231, 72 h
# MGC-803 = test: cells; type: functional, cell-based; conditions: Homo sapiens, MGC-803, 72 h
# Description: Antiproliferative activity against human MGC-803 cells assessed as inhibition of cell growth incubated for 72 hrs by MTT assay
# NCI-H1975 [6] = test: cells; type: functional, cell-based; conditions: Homo sapiens, NCI-H1975, 72 h
# Description: Antiproliferative activity against human NCI-H1975 cells assessed as inhibition of cell growth incubated for 72 hrs by MTT assay
# PC-3 = test: cells; type: functional, cell-based; conditions: Homo sapiens, PC-3, 72 h
# Description: Antiproliferative activity against human PC-3 cells assessed as inhibition of cell growth incubated for 72 hrs by MTT assay
# NCI-H1975 [7] = test: Cell cycle arrest in human NCI-H1975 cells assessed as accumulation at S phase at 2 uM incubated for 24 hrs by propidium iodide staining based flow cytometric analysis (reference value: 30.87%); type: functional
# NCI-H1975 [8] = test: Cell cycle arrest in human NCI-H1975 cells assessed as accumulation at G2 phase at 2 uM incubated for 24 hrs by propidium iodide staining based flow cytometric analysis (reference value: 18.57 %); type: functional
# NCI-H1975 [9] = test: Cell cycle arrest in human NCI-H1975 cells assessed as accumulation at G1 phase at 4 uM incubated for 24 hrs by propidium iodide staining based flow cytometric analysis (reference value: 50.56 %); type: functional
# NCI-H1975 [10] = test: Cell cycle arrest in human NCI-H1975 cells assessed as accumulation at S phase at 4 uM incubated for 24 hrs by propidium iodide staining based flow cytometric analysis (reference value: 30.87%); type: functional
# NCI-H1975 [11] = test: Cell cycle arrest in human NCI-H1975 cells assessed as accumulation at G2 phase at 4 uM incubated for 24 hrs by propidium iodide staining based flow cytometric analysis (reference value: 18.57 %); type: functional
# NCI-H1975 [12] = test: Cell cycle arrest in human NCI-H1975 cells assessed as accumulation at G1 phase at 8 uM incubated for 24 hrs by propidium iodide staining based flow cytometric analysis (reference value: 50.56 %); type: functional
# NCI-H1975 [13] = test: Cell cycle arrest in human NCI-H1975 cells assessed as accumulation at S phase at 8 uM incubated for 24 hrs by propidium iodide staining based flow cytometric analysis (reference value: 30.87%); type: functional
# NCI-H1975 [14] = test: Cell cycle arrest in human NCI-H1975 cells assessed as accumulation at G2 phase at 8 uM incubated for 24 hrs by propidium iodide staining based flow cytometric analysis (reference value: 18.57 %); type: functional
# NCI-H1975 [15] = test: Induction of apoptosis in human NCI-H1975 cells assessed as increase in p53 level at 2 to 8 uM by western blot analysis; type: functional, cell-based; conditions: dose 2-8 µM
# NCI-H1975 [16] = test: Induction of apoptosis in human NCI-H1975 cells assessed as increase in Bax level at 2 to 8 uM by western blot analysis; type: functional, cell-based; conditions: dose 2-8 µM
# NCI-H1975 [17] = test: Induction of apoptosis in human NCI-H1975 cells assessed as decrease in Bcl2 level at 2 to 8 uM by western blot analysis; type: functional, cell-based; conditions: dose 2-8 µM
# NCI-H1975 [18] = test: Induction of ROS generation in human NCI-H1975 cells assessed increase in ROS level at 2 to 8 uM incubated for 48 hrs by DHE staining based fluorescence microscopy; type: functional, cell-based; conditions: dose 2-8 µM
# [19] = biological target: Epidermal growth factor receptor (Homo sapiens) (UniProt P00533); test: Inhibition of EGFR in human NCI-H1975 cells assessed as reduction in EGFR phosphorylation level by Western blot analysis; type: cell-based; conditions: dose 2-8 µM
# [20] = biological target: Epidermal growth factor receptor (Homo sapiens) (UniProt P00533); test: Inhibition of EGFR in human NCI-H1975 cells assessed as reduction in PI3K phosphorylation level by Western blot analysis; type: cell-based; conditions: dose 2-8 µM
# NCI-H1975 [21] = test: Induction of apoptosis in human NCI-H1975 cells assessed as early apoptotic cells at 2 uM incubated for 48 hrs Annexin V-FITC/PI staining based flow cytometric analysis (reference value: 1%); type: functional
# NCI-H1975 [22] = test: Induction of apoptosis in human NCI-H1975 cells assessed as late apoptotic cells at 2 uM incubated for 48 hrs Annexin V-FITC/PI staining based flow cytometric analysis (reference value: 2.53%); type: functional
# NCI-H1975 [23] = test: Induction of apoptosis in human NCI-H1975 cells assessed as necrotic cells at 2 uM incubated for 48 hrs Annexin V-FITC/PI staining based flow cytometric analysis (reference value: 4.74%); type: functional
# NCI-H1975 [24] = test: Induction of apoptosis in human NCI-H1975 cells assessed as viable cells at 4 uM incubated for 48 hrs Annexin V-FITC/PI staining based flow cytometric analysis (reference value: 90.9%); type: functional; conditions: read-out: Activity
# NCI-H1975 [25] = test: Induction of apoptosis in human NCI-H1975 cells assessed as early apoptotic cells at 4 uM incubated for 48 hrs Annexin V-FITC/PI staining based flow cytometric analysis (reference value: 1%); type: functional
# NCI-H1975 [26] = test: Induction of apoptosis in human NCI-H1975 cells assessed as late apoptotic cells at 4 uM incubated for 48 hrs Annexin V-FITC/PI staining based flow cytometric analysis (reference value: 2.53%); type: functional
# NCI-H1975 [27] = test: Induction of apoptosis in human NCI-H1975 cells assessed as necrotic cells at 4 uM incubated for 48 hrs Annexin V-FITC/PI staining based flow cytometric analysis (reference value: 4.74%); type: functional
# NCI-H1975 [28] = test: Induction of apoptosis in human NCI-H1975 cells assessed as viable cells at 8 uM incubated for 48 hrs Annexin V-FITC/PI staining based flow cytometric analysis (reference value: 90.9%); type: functional; conditions: read-out: Activity
# NCI-H1975 [29] = test: Induction of apoptosis in human NCI-H1975 cells assessed as early apoptotic cells at 8 uM incubated for 48 hrs Annexin V-FITC/PI staining based flow cytometric analysis (reference value: 1%); type: functional
# NCI-H1975 [30] = test: Induction of apoptosis in human NCI-H1975 cells assessed as late apoptotic cells at 8 uM incubated for 48 hrs Annexin V-FITC/PI staining based flow cytometric analysis (reference value: 2.53%); type: functional
# NCI-H1975 [31] = test: Induction of apoptosis in human NCI-H1975 cells assessed as necrotic cells at 8 uM incubated for 48 hrs Annexin V-FITC/PI staining based flow cytometric analysis (reference value: 4.74%); type: functional
# Epidermal growth factor receptor (Homo sapiens), sequence (P00533 whole entry): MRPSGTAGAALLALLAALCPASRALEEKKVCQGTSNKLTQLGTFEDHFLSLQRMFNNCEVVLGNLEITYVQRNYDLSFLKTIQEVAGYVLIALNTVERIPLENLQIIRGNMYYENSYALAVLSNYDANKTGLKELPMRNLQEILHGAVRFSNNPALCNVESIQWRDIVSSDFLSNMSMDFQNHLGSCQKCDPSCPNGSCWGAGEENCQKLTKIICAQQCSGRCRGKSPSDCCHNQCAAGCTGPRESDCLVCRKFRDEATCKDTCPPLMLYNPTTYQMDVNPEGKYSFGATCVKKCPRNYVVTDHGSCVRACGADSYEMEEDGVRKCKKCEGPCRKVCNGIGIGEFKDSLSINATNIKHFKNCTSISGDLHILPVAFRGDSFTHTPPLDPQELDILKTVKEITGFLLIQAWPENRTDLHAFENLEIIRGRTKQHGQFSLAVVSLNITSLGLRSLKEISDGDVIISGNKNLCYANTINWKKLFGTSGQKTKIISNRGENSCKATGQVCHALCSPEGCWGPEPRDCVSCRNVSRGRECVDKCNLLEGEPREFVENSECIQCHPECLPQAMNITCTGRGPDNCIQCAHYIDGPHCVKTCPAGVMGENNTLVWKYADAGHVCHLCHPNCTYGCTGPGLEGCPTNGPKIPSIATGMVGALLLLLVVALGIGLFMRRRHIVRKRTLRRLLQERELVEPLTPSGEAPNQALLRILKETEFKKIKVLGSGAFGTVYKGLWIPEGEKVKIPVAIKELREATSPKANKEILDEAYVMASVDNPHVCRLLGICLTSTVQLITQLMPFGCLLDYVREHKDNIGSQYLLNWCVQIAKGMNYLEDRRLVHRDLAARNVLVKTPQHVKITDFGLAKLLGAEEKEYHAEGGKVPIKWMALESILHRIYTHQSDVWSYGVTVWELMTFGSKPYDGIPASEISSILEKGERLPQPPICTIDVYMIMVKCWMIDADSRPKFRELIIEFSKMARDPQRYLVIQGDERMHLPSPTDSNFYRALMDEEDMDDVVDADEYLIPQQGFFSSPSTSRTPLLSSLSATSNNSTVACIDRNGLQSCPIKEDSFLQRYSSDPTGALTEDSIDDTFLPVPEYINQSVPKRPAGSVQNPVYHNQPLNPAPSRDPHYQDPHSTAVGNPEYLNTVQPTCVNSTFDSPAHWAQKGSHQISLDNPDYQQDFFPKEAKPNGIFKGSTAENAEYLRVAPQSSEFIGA
smiles,measurement,setting,value
C=CC(=O)Nc1cccc(NC(=O)CSc2nc(Nc3cccc(F)c3)c3ccccc3n2)c1,Activity,NCI-H1975 [1],55.32%
same,Activity,NCI-H1975 [2],Active
same,viability at 2 µM,NCI-H1975 [3],78.5%
same,inhibition,NCI-H1975 [4],Dose-Dependent Effect
same,inhibition,NCI-H1975 [5],Dose-Dependent Effect
same,IC50,MDA-MB-231,8.16 µM
same,IC50,MGC-803,6.25 µM
same,IC50,NCI-H1975 [6],2.03 µM
same,IC50,PC-3,5.37 µM
same,Activity,NCI-H1975 [7],28.59%
same,Activity,NCI-H1975 [8],16.09%
same,Activity,NCI-H1975 [9],62.46%
same,Activity,NCI-H1975 [10],32.22%
same,Activity,NCI-H1975 [11],5.32%
same,Activity,NCI-H1975 [12],63.16%
same,Activity,NCI-H1975 [13],33.44%
same,Activity,NCI-H1975 [14],3.4%
same,Activity,NCI-H1975 [15],Active
same,Activity,NCI-H1975 [16],Active
same,Activity,NCI-H1975 [17],Active
same,Activity,NCI-H1975 [18],Active
same,inhibition,[19],Dose-Dependent Effect
same,inhibition,[20],Dose-Dependent Effect
same,Activity,NCI-H1975 [21],7.91%
same,Activity,NCI-H1975 [22],8.83%
same,Activity,NCI-H1975 [23],4.75%
same,viability at 4 µM,NCI-H1975 [24],63.7%
same,Activity,NCI-H1975 [25],9.73%
same,Activity,NCI-H1975 [26],14.2%
same,Activity,NCI-H1975 [27],12.4%
same,viability at 8 µM,NCI-H1975 [28],53.4%
same,Activity,NCI-H1975 [29],18.2%
same,Activity,NCI-H1975 [30],32.3%
same,Activity,NCI-H1975 [31],14.3%
